Results: ChEMBL document CHEMBL3045835, “Comparative study of conventional and microwave-assisted synthesis of some Schiff bases and their potential as antimicrobial agents” (2012)
In brackets after ≈: the same amount, converted by molar mass.

How the values were obtained:
Format in all cases: functional
[1] = test system: Micrococcus luteus; assay: Antibacterial activity against Micrococcus luteus MTCC 1538 at 100 ug/ml after 18 hr by cup-plate method; conditions: MTCC 1538, 18 h, read-out: DIZ
[2] = test system: Penicillium chrysogenum; assay: Antifungal activity against Penicillium chrysogenum MTCC 161 at 1500 ug/ml after 18 hr by cup-plate method; conditions: MTCC 161, 18 h, read-out: DIZ
[3] = test system: Staphylococcus aureus; assay: Antibacterial activity against Staphylococcus aureus MTCC 1430 at 200 ug/ml after 18 hr by cup-plate method; conditions: MTCC 1430, 18 h, read-out: DIZ
[4] = test system: Pseudomonas fluorescens; assay: Antibacterial activity against Pseudomonas fluorescens MTCC 2421 at 500 ug/ml after 18 hr by cup-plate method; conditions: MTCC 2421, 18 h, read-out: DIZ
[5] = test system: Staphylococcus aureus; assay: Antibacterial activity against Staphylococcus aureus MTCC 1430 after 24 hr by broth dilution method; conditions: MTCC 1430, 24 h
[6] = test system: Escherichia coli; assay: Antibacterial activity against Escherichia coli MTCC 1573 at 100 ug/ml after 18 hr by cup-plate method; conditions: MTCC 1573, 18 h, read-out: DIZ
[7] = test system: Micrococcus luteus; assay: Antibacterial activity against Micrococcus luteus MTCC 1538 at 1000 ug/ml after 18 hr by cup-plate method; conditions: MTCC 1538, 18 h, read-out: DIZ
[8] = test system: Penicillium chrysogenum; assay: Antifungal activity against Penicillium chrysogenum MTCC 161 at 1000 ug/ml after 18 hr by cup-plate method; conditions: MTCC 161, 18 h, read-out: DIZ
[9] = test system: Micrococcus luteus; assay: Antibacterial activity against Micrococcus luteus MTCC 1538 at 1500 ug/ml after 18 hr by cup-plate method; conditions: MTCC 1538, 18 h, read-out: DIZ
[10] = test system: Bacillus pumilus; assay: Antibacterial activity against Bacillus pumilus MTCC 1456 at 1500 ug/ml after 18 hr by cup-plate method; conditions: MTCC 1456, 18 h, read-out: DIZ
[11] = test system: Escherichia coli; assay: Antibacterial activity against Escherichia coli MTCC 1573 after 24 hr by broth dilution method; conditions: MTCC 1573, 24 h
[12] = test system: Staphylococcus aureus; assay: Antibacterial activity against Staphylococcus aureus MTCC 1430 at 1500 ug/ml after 18 hr by cup-plate method; conditions: MTCC 1430, 18 h, read-out: DIZ
[13] = test system: Bacillus subtilis; assay: Antibacterial activity against Bacillus subtilis MTCC 441 at 1000 ug/ml after 18 hr by cup plate method; conditions: MTCC 441, 18 h, read-out: DIZ
[14] = test system: Micrococcus luteus; assay: Antibacterial activity against Micrococcus luteus MTCC 1538 at 500 ug/ml after 18 hr by cup-plate method; conditions: MTCC 1538, 18 h, read-out: DIZ
[15] = test system: Pseudomonas aeruginosa; assay: Antibacterial activity against Pseudomonas aeruginosa MTCC 424 at 1000 ug/ml after 18 hr by cup-plate method; conditions: MTCC 424, 18 h, read-out: DIZ
[16] = test system: Pseudomonas fluorescens; assay: Antibacterial activity against Pseudomonas fluorescens MTCC 2421 after 24 hr by broth dilution method; conditions: MTCC 2421, 24 h
[17] = test system: Aspergillus niger; assay: Antifungal activity against Aspergillus niger MTCC 2546 at 100 ug/ml after 18 hr by cup-plate method; conditions: MTCC 2546, 18 h, read-out: DIZ
[18] = test system: Aspergillus niger; assay: Antifungal activity against Aspergillus niger MTCC 2546 at 1000 ug/ml after 18 hr by cup-plate method; conditions: MTCC 2546, 18 h, read-out: DIZ
[19] = test system: Penicillium chrysogenum; assay: Antifungal activity against Penicillium chrysogenum MTCC 161 at 500 ug/ml after 18 hr by cup-plate method; conditions: MTCC 161, 18 h, read-out: DIZ
[20] = test system: Pseudomonas aeruginosa; assay: Antibacterial activity against Pseudomonas aeruginosa MTCC 424 at 1500 ug/ml after 18 hr by cup-plate method; conditions: MTCC 424, 18 h, read-out: DIZ
[21] = test system: Pseudomonas fluorescens; assay: Antibacterial activity against Pseudomonas fluorescens MTCC 2421 at 200 ug/ml after 18 hr by cup-plate method; conditions: MTCC 2421, 18 h, read-out: DIZ
[22] = test system: Escherichia coli; assay: Antibacterial activity against Escherichia coli MTCC 1573 at 500 ug/ml after 18 hr by cup-plate method; conditions: MTCC 1573, 18 h, read-out: DIZ
[23] = test system: Staphylococcus aureus; assay: Antibacterial activity against Staphylococcus aureus MTCC 1430 at 1000 ug/ml after 18 hr by cup-plate method; conditions: MTCC 1430, 18 h, read-out: DIZ
[24] = test system: Escherichia coli; assay: Antibacterial activity against Escherichia coli MTCC 1573 at 1500 ug/ml after 18 hr by cup-plate method; conditions: MTCC 1573, 18 h, read-out: DIZ
[25] = test system: Aspergillus niger; assay: Antifungal activity against Aspergillus niger MTCC 2546 after 24 hr by broth dilution method; conditions: MTCC 2546, 24 h
[26] = test system: Penicillium chrysogenum; assay: Antifungal activity against Penicillium chrysogenum MTCC 161 at 200 ug/ml after 18 hr by cup-plate method; conditions: MTCC 161, 18 h, read-out: DIZ
[27] = test system: Pseudomonas aeruginosa; assay: Antibacterial activity against Pseudomonas aeruginosa MTCC 424 after 24 hr by broth dilution method; conditions: MTCC 424, 24 h

Cc1cccnc1/N=C/c1cccc2ccccc12
zone of inhibition at 100 µg/mL [1]: 16 mm
zone of inhibition at 1500 µg/mL [2]: 18 mm
zone of inhibition at 200 µg/mL [3]: 13 mm
zone of inhibition at 500 µg/mL [4]: 22 mm
MIC [5]: 400 µg/mL (≈ 1620 µM)
zone of inhibition at 100 µg/mL [6]: 13 mm
zone of inhibition at 1000 µg/mL [7]: 24 mm
zone of inhibition at 1000 µg/mL [8]: 17 mm
zone of inhibition at 1500 µg/mL [9]: 26 mm
zone of inhibition at 1500 µg/mL [10]: 20 mm
MIC [11]: 200 µg/mL (≈ 812 µM)
zone of inhibition at 1500 µg/mL [12]: 20 mm
zone of inhibition at 1000 µg/mL [13]: 18 mm
zone of inhibition at 500 µg/mL [14]: 22 mm
zone of inhibition at 1000 µg/mL [15]: 16 mm
MIC [16]: 300 µg/mL (≈ 1220 µM)
zone of inhibition at 100 µg/mL [17]: 13 mm
zone of inhibition at 1000 µg/mL [18]: 20 mm
zone of inhibition at 500 µg/mL [19]: 15 mm
zone of inhibition at 1500 µg/mL [20]: 18 mm
zone of inhibition at 200 µg/mL [21]: 20 mm
zone of inhibition at 500 µg/mL [22]: 15 mm
zone of inhibition at 1000 µg/mL [23]: 18 mm
zone of inhibition at 1500 µg/mL [24]: 19 mm
MIC [25]: 200 µg/mL (≈ 812 µM)
zone of inhibition at 200 µg/mL [26]: 13 mm
MIC [27]: 300 µg/mL (≈ 1220 µM)
